Key:
Format in all cases: in vivo
[1] = system: Monochoria (Monochoria vaginalis); assay: Test F flooded paddy test; set-up: key: 0 = no effect, 100 = complete control; conditions: Flood
Excerpt: (§1) Plant species in the flooded paddy test consisted of one stand of 9 or 10 water seeded rice seedlings (Rice, W. S. Jap, Oryza sativa cv. ‘Japonica—M202’ or Rice, W. S. Ind, ‘Indica’), and two stands of 3 or 4 transplanted rice seedlings (Oryza sativa cv. ‘Japonica—M202’), Monochoria (Monochoria vaginalis), sedge, umbrella (small-flower umbrella sedge, Cyperus difformis), hardstem bulrush (Scirpus juncoides), redstem (purple redstem, Ammannia coccinea), rice flatsedge (Cyperus iria), bearded sprangletop (Leptochloa fascicularis), barnyardgrass (Echinochloa crus-galli), waterplantain (common waterplantain, Alisma plantago-aquatica), and late watergrass (Echinochloa oryzicola) grown to the 2 to 2.5 leaf stage for testing. Potted plants were grown in a greenhouse with day/night temperature settings of 30/27° C., and supplemental balanced lighting was provided to maintain a 16-hour photoperiod. At time of treatment, test pots were flooded to 3 cm above the soil surface, treated by application of test compounds directly to the paddy water, and then maintained at that water depth for the duration of the test. Effects of treatments on rice and weeds were visually evaluated by comparison to untreated controls after 21 d. Plant response ratings, summarized in Table F, are based on a scale of 0 to 100 where 0 is no effect and 100 is complete control. A dash (-) response means no test result.

[2] = system: late watergrass (Echinochloa oryzicola); assay: Test F flooded paddy test; set-up: key: 0 = no effect, 100 = complete control; conditions: Flood
Excerpt: as §1

[3] = system: redstem (purple redstem, Ammannia coccinea); assay: Test F flooded paddy test; conditions: Flood
Excerpt: as §1

[4] = system: waterplantain (common waterplantain, Alisma plantago-aquatica); assay: Test F flooded paddy test; conditions: Flood
Excerpt: as §1

[5] = system: barnyardgrass (Echinochloa crus-galli); assay: Test G Pre-Emergence Protocol; conditions: Echinochloa crus-galli, pre-emergence, 312 h, evaluated after 13 days
Experimental: (§2) Seeds of corn (Zea mays), giant foxtail (Setaria faberi), barnyardgrass (Echinochloa crus-galli), ivy-leaved morning glory (Ipomoea hederacea), redroot pigweed (Amaranthus retroflexus) and velvetleaf (Abutilon theophrasti) were sown in standard soil in pots. After cultivation for one day under controlled conditions in a glasshouse (at 24/16° C., day/night; 14 hours light; 65% humidity), the plants were sprayed with an aqueous spray solution derived from the formulation of the technical active ingredient in acetone/water (50:50) solution containing 0.5% Tween 20 (polyoxyethylene sorbitan monolaurate, CAS RN 9005-64-5) to give a final dose of 15.625, 62.5 or 250 g/ha of test compound.
(§3) The test plants were then grown on under controlled conditions in a glasshouse (at 24/16° C., day/night; 14 hours light; 65% humidity) and watered twice daily. After 13 days the test was evaluated (100=total damage to plant; 0=no damage to plant). A dash (-) means no test result.

[6] = system: corn (Zea mays); assay: Test G Pre-Emergence Protocol; conditions: Zea mays, pre-emergence, 312 h, evaluated after 13 days
Experimental: as §2, §3

[7] = system: giant foxtail (Setaria faberi); assay: Test G Pre-Emergence Protocol; conditions: Setaria faberi, pre-emergence, 312 h, evaluated after 13 days
Experimental: as §2, §3

[8] = system: ivy-leaved morning glory (Ipomoea hederacea); assay: Test G Pre-Emergence Protocol; conditions: Ipomoea, pre-emergence, 312 h, evaluated after 13 days
Experimental: as §2, §3

[9] = system: redroot pigweed (Amaranthus retroflexus); assay: Test G Pre-Emergence Protocol; conditions: Amaranthus retroflexus, pre-emergence, 312 h, evaluated after 13 days
Experimental: as §2, §3

[10] = system: velvetleaf (Abutilon theophrasti); assay: Test G Pre-Emergence Protocol; conditions: Abutilon theophrasti, pre-emergence, 312 h, evaluated after 13 days
Experimental: as §2, §3

[11] = system: ducksalad (Heteranthera limosa); assay: Test C flooded paddy test; conditions: Flood; for Plant response rating (scale of 0 to 100), Ducksalad: 0 is no effect, 100 is complete control
Summary of the method: (§4)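 Visual 0–100 injury rating versus controls (0 = no effect, 100 = complete control) at 13 to 15 d. 2-leaf-stage plants; pots flooded 3 cm over soil surface, test compound added to paddy water; greenhouse.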

[12] = system: rice (Oryza sativa); assay: Test C flooded paddy test; conditions: Flood; for Plant response rating (scale of 0 to 100), Rice: 0 is no effect, 100 is complete control
Summary of the method: as §4

[13] = system: sedge, umbrella (small-flower umbrella sedge, Cyperus difformis); assay: Test C flooded paddy test; conditions: Flood; for Plant response rating (scale of 0 to 100), Sedge, Umbrella: 0 is no effect, 100 is complete control
Summary of the method: as §4

[14] = 16 g ai/ha, scale 0 to 100 (0 no effect, 100 complete control), 13 to 15 d

In the case of `CN1CC(c2cccc(OC(F)F)c2)C(C(=O)Nc2ccc(F)cc2F)C1=O` (centres unmarked) [Compound 617], the “Plant response rating: Monochoria” value ([1]; 32 g ai/ha) was 0, the “Plant response rating: Monochoria” value ([1]; 64 g ai/ha) was 40 and the “Plant response rating: Monochoria” value ([1]; 125 g ai/ha) was 70. For the same compound, the “Plant response rating: Monochoria” value ([1]; 250 g ai/ha) was 100, the “Plant response rating: Watergrass, Late” value ([2]; 32 g ai/ha) was 100 and the “Plant response rating: Watergrass, Late” value ([2]; 64 g ai/ha) was 100. For the same compound, the “Plant response rating: Watergrass, Late” value ([2]; 125 g ai/ha) was 100, the “Plant response rating: Watergrass, Late” value ([2]; 250 g ai/ha) was 100 and the “Plant response rating: Redstem” value ([3]; 32 g ai/ha) was 0. For the same compound, the “Plant response rating: Redstem” value ([3]; 64 g ai/ha) was 0, the “Plant response rating: Redstem” value ([3]; 125 g ai/ha) was 0 and the “Plant response rating: Redstem” value ([3]; 250 g ai/ha) was 0. For the same compound, the “Plant response rating: Waterplantain” value ([4]; 32 g ai/ha) was 0, the “Plant response rating: Waterplantain” value ([4]; 64 g ai/ha) was 75 and the “Plant response rating: Waterplantain” value ([4]; 125 g ai/ha) was 85. For the same compound, the “Plant response rating: Waterplantain” value ([4]; 250 g ai/ha) was 90.

For `CN1C[C@H](c2ccc(Cl)cc2)[C@@H](C(=O)Nc2cccc(F)n2)C1=O` [Compound 1399], the pest or weed control at 15.625 g/ha ([5]; 15.625 g ai/ha, read-out: Barnyard grass damage rating (100=total damage to plant; 0=no damage to plant)) was 0%, the pest or weed control at 62.5 g/ha ([5]; 62.5 g ai/ha, 100=total damage to plant, 0=no damage to plant, read-out: plant damage rating, Barnyardgrass) was 90% and the pest or weed control at 250 g/ha ([5]; 250 g ai/ha, read-out: Barnyardgrass damage rating (100=total damage to plant; 0=no damage to plant)) was 90%. The plant injury at 15.625 g/ha ([6]; 15.625 g ai/ha, read-out: Corn damage rating (100=total damage to plant; 0=no damage to plant)) was 0%, the plant injury at 62.5 g/ha ([6]; 62.5 g ai/ha, 100=total damage to plant, 0=no damage to plant, read-out: plant damage rating, Corn) was 10% and the plant injury at 250 g/ha ([6]; 250 g ai/ha, read-out: Corn damage rating (100=total damage to plant; 0=no damage to plant)) was 60%. It also gave a pest or weed control at 15.625 g/ha ([7]; 15.625 g ai/ha, read-out: Foxtail, Giant damage rating (100=total damage to plant; 0=no damage to plant)) of 90%, a pest or weed control at 62.5 g/ha ([7]; 62.5 g ai/ha, 100=total damage to plant, 0=no damage to plant, read-out: plant damage rating, Foxtail, Giant) of 90% and a pest or weed control at 250 g/ha ([7]; 250 g ai/ha, read-out: Foxtail, Giant damage rating (100=total damage to plant; 0=no damage to plant)) of 90%. The pest or weed control at 15.625 g/ha ([8]; 15.625 g ai/ha, read-out: Morning-glory, Ivy-leaved damage rating (100=total damage to plant; 0=no damage to plant)) was 0%, the pest or weed control at 62.5 g/ha ([8]; 62.5 g ai/ha, 100=total damage to plant, 0=no damage to plant, read-out: plant damage rating, Morningglory, Ivy-leaved) was 50% and the pest or weed control at 250 g/ha ([8]; 250 g ai/ha, read-out: Morningglory, Ivy-leaved damage rating (100=total damage to plant; 0=no damage to plant)) was 60%. The pest or weed control at 15.625 g/ha ([9]; 15.625 g ai/ha, read-out: Pigweed, Redroot damage rating (100=total damage to plant; 0=no damage to plant)) was 0%, the pest or weed control at 62.5 g/ha ([9]; 62.5 g ai/ha, 100=total damage to plant, 0=no damage to plant, read-out: plant damage rating, Pigweed, Redroot) was 30% and the pest or weed control at 250 g/ha ([9]; 250 g ai/ha, read-out: Pigweed, Redroot damage rating (100=total damage to plant; 0=no damage to plant)) was 80%. The pest or weed control at 15.625 g/ha ([10]; 15.625 g ai/ha, read-out: Velvetleaf damage rating (100=total damage to plant; 0=no damage to plant)) was 0%, the pest or weed control at 62.5 g/ha ([10]; 62.5 g ai/ha, 100=total damage to plant, 0=no damage to plant, read-out: plant damage rating, Velvetleaf) was 40% and the pest or weed control at 250 g/ha ([10]; 250 g ai/ha, read-out: Velvetleaf damage rating (100=total damage to plant; 0=no damage to plant)) was 70%.

For `Cc1ccc(C2CN(C)C(=O)C2C(=O)Nc2ccccc2F)cc1F` (centres unmarked) [Compound 465], the “Plant response rating, Ducksalad” value [11, 14] was 0, the “Plant response rating (scale of 0 to 100), Ducksalad” value ([11]; 31 g ai/ha) was 45 and the “Plant response rating (scale of 0 to 100), Ducksalad” value ([11]; 62 g ai/ha) was 65. The “Plant response rating (scale of 0 to 100), Ducksalad” value ([11]; 125 g ai/ha) was 90, the “Plant response rating, Rice” value [12, 14] was 0 and the “Plant response rating (scale of 0 to 100), Rice” value ([12]; 31 g ai/ha) was 0. The “Plant response rating (scale of 0 to 100), Rice” value ([12]; 62 g ai/ha) was 0, the “Plant response rating (scale of 0 to 100), Rice” value ([12]; 125 g ai/ha) was 0 and the “Plant response rating, Sedge, Umbrella” value [13, 14] was 0. The “Plant response rating (scale of 0 to 100), Sedge, Umbrella” value ([13]; 31 g ai/ha) was 0, the “Plant response rating (scale of 0 to 100), Sedge, Umbrella” value ([13]; 62 g ai/ha) was 0 and the “Plant response rating (scale of 0 to 100), Sedge, Umbrella” value ([13]; 125 g ai/ha) was 0. For the same compound, the “Plant response rating: Monochoria” value ([1]; 32 g ai/ha) was 50, the “Plant response rating: Monochoria” value ([1]; 64 g ai/ha) was 75 and the “Plant response rating: Monochoria” value ([1]; 125 g ai/ha) was 100. For the same compound, the “Plant response rating: Monochoria” value ([1]; 250 g ai/ha) was 100, the “Plant response rating: Watergrass, Late” value ([2]; 32 g ai/ha) was 85 and the “Plant response rating: Watergrass, Late” value ([2]; 64 g ai/ha) was 00. For the same compound, the “Plant response rating: Watergrass, Late” value ([2]; 125 g ai/ha) was 100, the “Plant response rating: Watergrass, Late” value ([2]; 250 g ai/ha) was 100 and the “Plant response rating: Redstem” value ([3]; 32 g ai/ha) was 0. For the same compound, the “Plant response rating: Redstem” value ([3]; 64 g ai/ha) was 0, the “Plant response rating: Redstem” value ([3]; 125 g ai/ha) was 0 and the “Plant response rating: Redstem” value ([3]; 250 g ai/ha) was 45. For the same compound, the “Plant response rating: Waterplantain” value ([4]; 32 g ai/ha) was 0, the “Plant response rating: Waterplantain” value ([4]; 64 g ai/ha) was 40 and the “Plant response rating: Waterplantain” value ([4]; 125 g ai/ha) was 90. The “Plant response rating: Waterplantain” value ([4]; 250 g ai/ha) was 100.
